Reference: patent publication EP4696691A1, “TRICYCLIC COMPOUND, AND PREPARATION METHOD THEREFOR AND USE THEREOF” (Shanghai Huilun Pharmaceutical Co., Ltd., priority 2023, dated 2024)
Like-named read-outs stand apart in the source and are kept apart here.

Tests used:
[1] = Pharmacokinetic behavior in mice (plasma concentration by LC-MS/MS); assay type: in vivo; settings: male ICR mice
Description: (§1) Three healthy ICR mice (SPF grade, from Beijing Vital River Laboratory Animal Technology Co., Ltd.), male, weighing 18-25 g, were intravenously injected with a compound (1 mg/kg) at a volume of 5 mL/kg. The compound was prepared using 5% DMSO+10% Solutol+85% Saline (w/v), and the animals were not fasted before the experiment.
as §1, with “were intragastrically administered” for “were intravenously injected with”, “compound (5” for “compound (1”, “of 10” for “of 5”
Blood samples (about 0.05 mL each) were collected from the cheeks at 5 min, 15 min, 30 min, 1 h, 2 h, 4 h, 6 h, 8 h, and 24 h after intravenous administration, and at 5 min, 15 min, 30 min, 1 h, 2 h, 4 h, 6 h, 8 h, and 24 h after intragastrical administration, and anticoagulated with heparin sodium. Following collection, the blood samples were placed on ice and the plasma was centrifuged within 1 h (centrifugation conditions: 6,000 g, 3 min, 2 °C to 8°C). The concentration of the compounds in the plasma was determined by liquid chromatography tandem mass spectrometry. The plasma samples were stored in a -80°C freezer before analysis. With plasma concentration data at different time points, pharmacokinetic parameters were calculated by Phoenix WinNonlin8.2.0, and the results are shown in Table 4: Table 4

[2] = target: T1, IRAK4-HiBiT fusion protein (Homo sapiens, UniProt Q9NWZ3); assay: Detection of HiBiT-IRAK4 proteolysis levels in K562 IRAK4-HiBiT cells (Nano-Glo HiBiT Lytic assay); assay type: cell-based
T1 construct: K562 from ATCC
T1 sequence (Q9NWZ3 1-460): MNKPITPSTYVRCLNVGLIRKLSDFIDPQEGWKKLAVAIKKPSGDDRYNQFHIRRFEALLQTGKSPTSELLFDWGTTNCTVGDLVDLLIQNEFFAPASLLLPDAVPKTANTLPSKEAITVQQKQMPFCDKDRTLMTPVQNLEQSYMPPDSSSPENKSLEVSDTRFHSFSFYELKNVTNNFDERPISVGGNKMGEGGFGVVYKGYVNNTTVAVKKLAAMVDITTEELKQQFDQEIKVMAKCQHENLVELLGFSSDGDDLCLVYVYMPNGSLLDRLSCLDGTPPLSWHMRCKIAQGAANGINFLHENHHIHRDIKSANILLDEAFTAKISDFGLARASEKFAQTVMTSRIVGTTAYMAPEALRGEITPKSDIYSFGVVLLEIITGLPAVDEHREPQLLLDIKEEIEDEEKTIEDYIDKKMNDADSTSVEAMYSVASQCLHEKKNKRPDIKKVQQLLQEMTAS
Description: Test Example 1 Detection of HiBiT-IRAK4 proteolysis levels in K562 IRAK4-HiBiT cells co-incubated with compounds of the present application • Reagents, devices, and consumables in experiments: • Nano-Glo Lytic Detection Assay, purchased from Promega; • EnVision, purchased from PerkinElmer; • Name of cell line: K562 IRAK4-HiBiT stable transformation cell strain (capable of stably expressing IRAK4-HiBiT fusion protein), constructed by Shanghai Bioduro Biologics Co., Ltd., where a K562 cell strain was purchased from ATCC. The culture medium is IMDM+10% FBS+1% P/S (volume percentage, where FBS is fetal bovine serum and P/S is Penicillin-Streptomycin, a 1:1 mixture of penicillin and streptomycin antibiotic solution (10,000 units/mL)).
Cell culture: K562 IRAK4-HiBiT cells were incubated at 37°C, and passaged every 2-3 d, with a seeding density of 200,000 cells/mL.
IRAK4-HiBiT proteolysis experiment: • Step 1: Cell seeding and treatment of compound • 1. A 10 mM compound mother liquor was prepared using DMSO, and a compound solution with a working concentration of 1,000 times (the highest working concentration is 10 µM, diluted 3.162 times, with a total of 10 concentration gradients) was prepared using Bravo automatic liquid processing platform. • 2. 40 nL of a compound working solution was transferred to a 384 well plate, and an equal volume of DMSO was added to positive control wells. • 3. 20 µL of a culture solution was added per well and shaken for 10 min. • 4.20 µL of a K562 IRAK4-HiBiT cell suspension was added per well (6,000 cells/well), and an equal volume of culture medium was added to negative control wells. • 5. The well plate was rotated at 1,000 rpm for 1 min. • 6. The cells were incubated in a 5% CO2 incubator at 37°C for 2 h or 6 h. • Step 2: HiBiT Lytic experiment • 1. The well plate was placed at room temperature to equilibrate for 30 min. • 2. 20 µL of Nano-Glo HiBiT Lytic reagent (trade name: Nano-Glo® HiBiT Lytic Detection Reagent) and the well plate was kept in the dark. • 3. The well plate was placed on an orbital shaker at 300 rpm for 5 min. • 4. The cells were incubated at room temperature for 10 min. • 5. The luminous value was read by Envision. • 6. Data was calculated and processed. Degradation degree%=(negative control - experimental well)/(negative control - positive control) * 100%. Using XL-fit software, a degradation curve was obtained by fitting using a 4 Parameter Logistic Model, and the values of Relative DC50 (nM) and Absolute DC50 (nM) were obtained.

[3] = test system: LPS induced IL-6 release in human PBMC cells; assay: Inhibition of LPS induced IL-6 release in human PBMC cells (IL-6 HTRF assay); assay type: cell-based; settings: 2 h compound pre-incubation, LPS 5 ng/mL for 4 h, IL-6 in supernatant
Description: I. Recovery and seeding of PBMC, and treatment of compounds (human PBMC cells were purchased from Oricell, item number: Fpb003F)
• 1. Preparation of compounds Sample dilutions of a series of concentrations were obtained by dilution in DMSO using Bravo, and then 80 nL was transferred into a cell plate using ECHO. The final concentration of DMSO in the cell culture medium is 0.1%. • 2. Frozen cells were quickly thawed in a 37°C water bath and stirred continuously. • 3. 25 mL of fresh preheated culture medium was added into a 50 mL centrifuge tube, and then the cells were added dropwise. Then the cells were centrifuged at 2,000 rpm for 10 min. • 4. […] The total number of cells required was calculated based on cell concentration to perform the assay. 7×10e4 cells were added per well (70 µL). • 6. The cell plate was placed and incubated in a 5% CO2 incubator at 37°C for 2 h.
• 1. LPS: A stock solution (1 mg/mL) was diluted in dH2O, aliquoted, and stored at -80°C. • 2. 8-fold LPS was added per well (10 µl/well) (with a final concentration of 5 ng/mL). The cells were incubated in a 5% CO2 incubator at 37°C for 4 h. • 3. 70 µl of supernatant was collected per well using Bravo, and then IL-6 HTRF assay was performed. The supernatant may be stored at -80°C.
1. Preparation of standards and sample dilutions. 2. 16 µL of each sample was taken using Bravo and added to wells. Then 16 µL of each standard was taken and added to corresponding wells. 3.4 µL of a premixed IL6 antibody working solution was added to each of all wells. 4. The cell plate was sealed and incubated at room temperature for 2 h. 5.

[4] = Intragastric administration (5 mg/kg), 5 mg/kg
[5] = Intravenous injection (1 mg/kg), 1 mg/kg
[6] = 6 h incubation, read-out: Absolute DC50
[7] = 6 h incubation, read-out: Relative DC50
[8] = 2 h incubation, read-out: Absolute DC50
[9] = 2 h incubation, read-out: Relative DC50

Structure (SMILES)	Dmax ([2]; 6 h incubation) [%]	DC50 [2, 6] [nM]	DC50 [2, 7] [nM]	further results
CC(C)(O)c1cc2nn([C@H]3CC[C@H](CCN4CCN5c6ccc(C7(C)CCC(=O)NC7=O)cc6OC[C@H]5C4)CC3)cc2cc1NC(=O)c1cccc(C(F)(F)F)n1 (single isomer, unassigned) [Compound 120-b-1]	–	–	–	AUClast [1, 4]: 16903 ng·h/mL; Cmax [1, 4]: 1457 ng/mL; F% [1, 4]: 44.5%; T1/2 [1, 4]: 5.32 h; AUClast [1, 5]: 7249 ng·h/mL; CL [1, 5]: 2.10 mL/min/kg; Cmax [1, 5]: 888 ng/mL; Vss [1, 5]: 1.19 L/kg
CC(C)(O)c1cc2nn([C@H]3CC[C@H](CCN4CCN5c6ncc(C7CCC(=O)NC7=O)cc6OCC5C4)CC3)cc2cc1NC(=O)c1cccc(C(F)(F)F)n1 (stereo partly shown) [Compound 2]	96	6.32	5.43	–
CC(C)(O)c1cc2nn([C@H]3CC[C@H](CCN4CCC5(CC4)OCc4cc(C6CCC(=O)NC6=O)ccc45)CC3)cc2cc1NC(=O)c1cccc(C(F)(F)F)n1 (stereo partly shown) [Compound 47]	93	0.65	0.54	IC50 [3]: 0.52 nM
CC(C)Oc1cc2nc([C@H]3CC[C@H](CCN4CCC5(CC4)OCc4cc(C6CCC(=O)NC6=O)ccc45)CC3)cn2cc1C(=O)Nc1cnn2cccnc12 (stereo partly shown) [Compound 94]	97	3.82	3.97	IC50 [3]: 64.5 nM
COc1cc2nn([C@H]3CC[C@H](CCN4CCN5c6ccc(C7CCC(=O)NC7=O)cc6OCC5C4)CC3)cc2cc1C(=O)Nc1cccc(C(F)(F)F)n1 (stereo partly shown) [Compound 95]	97	3.87	4.83	–
COc1cc2nn(C3CCN(CCN4CCC5(CC4)OCc4cc(C6CCC(=O)NC6=O)ccc45)CC3)cc2cc1NC(=O)c1cccc(C(F)(F)F)n1 (stereo not shown) [Compound 97]	93	1.64	1.6	–
COc1cc2nn(C3CCN(CCN4CCN5c6ccc(C7CCC(=O)NC7=O)cc6OCC5C4)CC3)cc2cc1NC(=O)c1cccc(C(F)(F)F)n1 (stereo not shown) [Compound 98]	89	< 1	0.2	–
CC(C)(O)c1cc2nn(C3CCN(CCN4CCN5c6ccc(C7CCC(=O)NC7=O)cc6OCC5C4)CC3)cc2cc1NC(=O)c1cccc(C(F)(F)F)n1 (stereo not shown) [Compound 99]	–	–	–	Dmax ([2]; 2 h incubation): 66%; DC50 [2, 8]: 40.3 nM; DC50 [2, 9]: 13.5 nM
[2H]C1(c2ccc3c(c2)OCC2CN(CCC4CCC(n5cc6cc(NC(=O)c7cccc(C(F)(F)F)n7)c(C(C)(C)O)cc6n5)CC4)CCN32)CCC(=O)NC1=O (stereo not shown) [Compound 101]	–	–	–	Dmax ([2]; 2 h incubation): 87%; DC50 [2, 8]: 7.2 nM; DC50 [2, 9]: 4.28 nM
CC(C)(O)c1cc2nn([C@H]3CC[C@H](CN4CCC5(CC4)OCc4cc(C6CCC(=O)NC6=O)ccc45)CC3)cc2cc1NC(=O)c1cccc(C(F)(F)F)n1 (stereo partly shown) [Compound 114]	85	4.85	3.99	–
CC(C)(O)c1cc2nn([C@H]3CC[C@H](CCN4CC5(CCN6c7ccc(C8CCC(=O)NC8=O)cc7NC6C5)C4)CC3)cc2cc1NC(=O)c1cccc(C(F)(F)F)n1 (stereo partly shown) [Compound 115]	77	146	81.4	–
CC(C)(O)c1cc2nn([C@H]3CC[C@H](CCN4CCN5c6ncc(N7CCC(=O)NC7=O)cc6OCC5C4)CC3)cc2cc1NC(=O)c1cccc(C(F)(F)F)n1 (stereo partly shown) [Compound 116]	83	8.37	4.48	–
CC(C)(O)c1cc2nn([C@H]3CC[C@H](CCN4CCN5c6ccc(N7CCC(=O)NC7=O)cc6OCC5C4)CC3)cc2cc1NC(=O)c1cccc(C(F)(F)F)n1 (stereo partly shown) [Compound 117]	89	11.7	10.3	–
CC(C)(O)c1cc2nn([C@H]3CC[C@H](CCN4CCN5c6ccc(N7CCC(=O)NC7=O)cc6CCC5C4)CC3)cc2cc1NC(=O)c1cccc(C(F)(F)F)n1 (stereo partly shown) [Compound 118]	–	–	–	Dmax ([2]; 2 h incubation): 61%; DC50 [2, 8]: 4.62 nM; DC50 [2, 9]: 0.96 nM
CC(C)(O)c1cc2nn([C@H]3CC[C@H](CCN4CCN5c6ccc(C7CCC(=O)NC7=O)cc6CCC5C4)CC3)cc2cc1NC(=O)c1cccc(C(F)(F)F)n1 (stereo partly shown) [Compound 119]	–	–	–	Dmax ([2]; 2 h incubation): 93%; DC50 [2, 8]: 1.11 nM; DC50 [2, 9]: 1.02 nM
CC(C)(O)c1cc2nn([C@H]3CC[C@H](CCN4CCN5c6ccc(C7(C)CCC(=O)NC7=O)cc6OCC5C4)CC3)cc2cc1NC(=O)c1cccc(C(F)(F)F)n1 (stereo partly shown) [Compound 120]	–	–	–	Dmax ([2]; 2 h incubation): 90%; DC50 [2, 8]: 39 nM; DC50 [2, 9]: 27.8 nM
CC(C)(O)c1cc2nn([C@H]3CC[C@H](CCN4CCN5c6ccc(C7(C)CCC(=O)NC7=O)cc6OCC5C4)CC3)cc2cc1NC(=O)c1ccc2cc(C#N)cnn12 (stereo partly shown) [Compound 126]	97	10.8	12.3	–
CC(C)(O)c1cc2nn([C@H]3CC[C@H](CCN4CCN5c6ccc(C7CCC(=O)NC7=O)cc6OCC5C4)CC3)cc2cc1NC(=O)c1ccc2cc(C#N)cnn12 (stereo partly shown) [Compound 129]	97	4.41	4.32	–
CC(C)(O)c1cc2nn([C@H]3CC[C@H](CCN4CCN5c6ccc(C7CCC(=O)NC7=O)cc6OCCC5C4)CC3)cc2cc1NC(=O)c1cccc(C(F)(F)F)n1 (stereo partly shown) [Compound 130]	97	8.13	8.51	–
